Results reported in patent US20210114983A1, “Cathepsin C inhibitors” (National Institute of Biological Sciences, Beijing, priority 2018, published 2021).

Tests used:
CatC [1] = biological target: T1, CatC (Mus musculus, UniProt P97821); test: In vivo study, CatC activity in mice bone marrow and blood lysates; conditions: dose dependent
T1 construct: Blood cells and bone marrow cells were lysed; from tissue; host or cells: C57BL/6 mouse bone marrow and blood cell lysates
Protocol: (§1) C57BL/6 mice (20-25 g) were randomly divided into 4 groups (n=10) and kept at 5 animals per cage. Compound 31 was administered orally twice daily at 6.7, 20, 60 mg kg-1 day-1 for 6 days. The matched vehicle controls (0.5% Methocel™, 0.1% Tween 80 in 100 mM citrate buffer, pH 3) were also administered twice daily for 6 days. Mice were weighed and the dose adjusted accordingly on each day. Sprague Dawley (280-300 g) were conducted by intraperitoneal injection twice daily at 1, 5, 20 mg kg-1 day-1 for 8 days. Blood was sampled through eye puncture at 14 h intervals after the end of the administration. Then mice were terminated and bone marrow cells were immediately extracted from femurs and tibias using ice cold RPMI 1640 medium. Blood cells and bone marrow cells were lysed according to the protocols previously described 8 with some modifications. […]
(§2) The analysis was performed as previously described. […] Synthetic peptide substrates (Gly-Phe-AFC(SMBiochemicals) for CatC, methoxysuccinyl-Ala-Ala-Pro-Val-AMC (Sigma) for NE, minobenzoyl-Val-Ala-Asp-Cys-Ala-Asp-Gin-ethylenediamine 2,4-dinitrophenyl (Peptide Synthetics) for Pr3, and N-succinyl-Ala-Ala-Pro-Phe-ONA (Sigma) for CatG) were added before plates were read at fluorescence or absorbance. Assay kinetics was monitored for up to 90 min. Data were analyzed using GraphPad Prism (GraphPad Software, Inc., San Diego, Calif., USA).

Pr3 = test: In vivo study, Pr3 activity in mice bone marrow and blood lysates; conditions: dose dependent
Protocol: as §1, §2

rhCatC (Cathepsin C) = rhCatC (Cathepsin C) (Homo sapiens, UniProt P53634); test: In Vitro CatC Enzyme Assay; assay type: biochemical; conditions: read-out: Cat C Enzy (Cathepsin C inhibitory activity, IC50)
Protocol: In Vitro CatC Enzyme Assay
The CatC enzyme assay was performed in black 384-well plate. Firstly, rhCatC (440 nM) was activated by rhCatL (300 nM) in activation buffer (25 mM MES, 5 mM DTT, pH 6.0) at room temperature for 2 h and then activated rhCatC was diluted to 4.4 nM in assay buffer (25 mM MES, 50 mM NaCl, 5 mM DTT, 0.01% (v/v) Triton X100, pH 6.0), 14 μL activated rhCatC and 1 μL compound in 10% DMSO or 10% DMSO were incubated at room temperature for 3 h, and 5 μL substrate (Gly-Phe-AFC) was added to final concentration of 100 μM. After 60 min reaction, the product of the reaction was measured in the Enspire plate reader using Ex λ400 nm and Em λ505 nm for AFC. A standard irreversible CatC inhibitor 10 by AstraZeneca (J. Med. Chem. 2014, 57, 2357-2367) was used as an inhibitor control in the assay.

NE [2] = test: In vivo study, NE activity in rat bone marrow lysates; conditions: dose dependent
Protocol: as §1, §2

CatC [3] = biological target: T2, CatC (Rattus norvegicus, UniProt P80067); test: In vivo study, CatC activity in rat bone marrow lysates; conditions: dose dependent
T2 construct: bone marrow cells were immediately extracted from femurs and tibias; from tissue; host or cells: Sprague Dawley rat bone marrow cell lysate
Protocol: as §1, §2

CatG [4] = test: In vivo study, CatG activity in mice bone marrow and blood lysates; conditions: dose dependent
Protocol: as §1, §2

acute pancreatitis = test: Caerulein-induced acute pancreatitis; assay type: in vivo, C57BL/6 mice; conditions: orally twice daily at 20 mg/kg for 6 days
Protocol: Induction of Pancreatitis. The acute pancreatitis was induced by hourly intraperitoneal injections of caerulein (50 μg/kg/body weight) for up to 8 h, 36 C57BL/6 mice (20-25 g) were randomly divided into 4 groups (n=5). Compound 28 were administered orally twice daily at 20 mg/kg for 6 days. The matched vehicle controls (0.5% Methocel™, 0.1% Tween 80 in 100 mM citrate buffer, pH 3) were also administered twice daily for 6 days. On the 6th day, mice were induced pancreatitis after compound administration and after the last caerulein injection, mice were administered compound. The sham-treated group was performed with the same as vehicle controls except that saline was administered instead of caerulein. Mice were killed at 1 h after the last caerulein injection. Tissue was harvested immediately after sacrificing the animals. A portion of pancreas samples were frozen in liquid nitrogen for preparation of homogenate. For histology, pancreas was fixed in 4.5% formalin for paraffin embedding and stained with hematoxylin and eosin. Serum samples were prepared and stored at −20 C. […] Compound 28 were administered orally twice daily at 20 mg/kg. The activity inhibition data of the compound-treated groups are shown as the percentage activity of a sham mean (set to 100% activity). Values are means±SEM. […]

CatG [5] = test: In vivo study, CatG activity in rat bone marrow lysates; conditions: dose dependent
Protocol: as §1, §2

NE [6] = test: In vivo study, NE activity in mice bone marrow and blood lysates; conditions: dose dependent
Protocol: as §1, §2

T1 sequence (P97821 25-134 limits assumed): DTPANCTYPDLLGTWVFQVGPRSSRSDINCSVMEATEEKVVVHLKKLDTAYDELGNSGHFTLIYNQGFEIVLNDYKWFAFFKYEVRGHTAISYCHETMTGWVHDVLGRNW
T1 sequence (P97821 231-393 limits assumed): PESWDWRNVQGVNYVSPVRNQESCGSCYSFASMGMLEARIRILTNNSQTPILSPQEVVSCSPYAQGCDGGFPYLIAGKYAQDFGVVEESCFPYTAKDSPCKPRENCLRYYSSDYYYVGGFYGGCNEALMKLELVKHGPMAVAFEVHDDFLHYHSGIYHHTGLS
T1 sequence (P97821 394-462 limits assumed): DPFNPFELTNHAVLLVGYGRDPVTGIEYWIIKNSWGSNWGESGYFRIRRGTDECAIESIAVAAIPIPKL
Chain of rhCatC (Cathepsin C) (P53634 25-134 limits assumed): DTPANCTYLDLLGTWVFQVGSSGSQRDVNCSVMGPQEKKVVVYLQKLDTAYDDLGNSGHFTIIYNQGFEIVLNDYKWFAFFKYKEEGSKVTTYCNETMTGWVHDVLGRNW
Chain of rhCatC (Cathepsin C) (P53634 231-394 limits assumed): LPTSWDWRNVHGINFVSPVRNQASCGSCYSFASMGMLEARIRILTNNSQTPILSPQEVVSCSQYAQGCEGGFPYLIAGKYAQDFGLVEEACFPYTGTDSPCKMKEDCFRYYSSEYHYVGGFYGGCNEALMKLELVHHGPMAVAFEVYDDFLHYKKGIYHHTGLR
Chain of rhCatC (Cathepsin C) (P53634 395-463 limits assumed): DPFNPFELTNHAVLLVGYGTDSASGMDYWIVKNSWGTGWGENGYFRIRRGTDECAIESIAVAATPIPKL
T2 sequence (P80067 25-134 limits assumed): as the sequence (P97821 25-134 limits assumed) above, with S23H, S24P, D27H, A35P, V42I, L54V, H59Y, R86K, H88S, T89R counted along it
T2 sequence (P80067 230-393 limits assumed): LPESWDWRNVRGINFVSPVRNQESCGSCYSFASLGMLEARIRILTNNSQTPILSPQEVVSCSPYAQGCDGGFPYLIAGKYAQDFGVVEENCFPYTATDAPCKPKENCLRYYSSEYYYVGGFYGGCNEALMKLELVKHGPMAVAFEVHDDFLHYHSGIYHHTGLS
T2 sequence (P80067 394-462 limits assumed): as the sequence (P97821 394-462 limits assumed) above, with R20K, I26L, E27D, I31V, N38Q, V61M counted along it

With `C=CC(=O)Nc1cc(Oc2nc(Nc3ccc(N4CCN(C)CC4)cc3OC)ccc2N2CCCCC2)ccc1C` [Compound 28, N-(5-((6-((2-methoxy-4-(4-methylpiperazin-1-yl)phenyl)amino)-3-(piperidin-1-yl)pyridin-2-yl)oxy)-2-methylphenyl)acrylamide] the “activation of CatC” value (CatC [1]; mice blood) was “inhibited the activation”, the “activation of CatC” value (CatC [1]; mice bone marrow) was “inhibited the activation” and the “activation of Pr3” value (Pr3; mice blood) was “inhibited the activation”. The “activation of Pr3” value (Pr3; mice bone marrow) was “inhibited the activation”, the IC50 (rhCatC (Cathepsin C)) was 3 to 300 nM and the “activation of NE” value (NE [2]) was “inhibited the activation”. For the same molecule, the “activation of CatC” value (CatC [3]) was “inhibited the activation”, the “activation of CatG” value (CatG [4]; mice blood) was “inhibited the activation” and the “activation of CatG” value (CatG [4]; mice bone marrow) was “inhibited the activation”. For the same molecule, the “severity of acute pancreatitis” value (acute pancreatitis) was “reduced the severity of acute pancreatitis”, the “activation of CatG” value (CatG [5]) was “inhibited the activation” and the “activation of NE” value (NE [6]; mice blood) was “inhibited the activation”. For the same molecule, the “activation of NE” value (NE [6]; mice bone marrow) was “inhibited the activation”.
